According to US20250281424A1 (New York Blood Center, Inc, priority 2020, published 2025):

Target: T1, human PF4 (Homo sapiens, UniProt P02776)
T1 construct: PF4 is a 70 amino acid, lysine-rich 7.8 kDa platelet-specific protein; made in house; host or cells: Escherichia coli BL21DE3 pLysS (pT7-7) and/or Drosophila S2 cells
T1 sequence (P02776 32-101): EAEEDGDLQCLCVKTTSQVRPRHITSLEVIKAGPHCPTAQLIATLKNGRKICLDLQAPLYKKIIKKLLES
Assay: Inhibition of PF4 tetramer formation (BS3 cross-linking, SDS-PAGE)
Type: biochemical
Details: for inhibition at 1 µM: 1 μM inhibitor; for inhibition at 1 µM / inhibition at 3 µM / inhibition at 5 µM / inhibition at 10 µM: read-out: % inhibition of PF4 tetramer formation at single concentration of inhibitor; for inhibition at 3 µM: 3 μM inhibitor (column A); for IC50: read-out: IC50 of PF4 tetramer formation inhibition; for inhibition at 5 µM: 5 μM inhibitor; for inhibition at 10 µM: 10 μM inhibitor (column A)
In short: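 Monomer, dimer, trimer and tetramer fractions were quantified by densitometry after reducing 12% SDS-PAGE of BS3-cross-linked (0.2 mM, 30 min, room temperature) PF4. Before cross-linking, 10 μg/ml E. coli-expressed human WT PF4 in PBS was exposed to compound for 15 min at 37° C or 60 min at room temperature; controls lacked compound.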

inhibition at 1 µM [%] | inhibition at 3 µM [%] | inhibition at 5 µM [%] | inhibition at 10 µM [%] | SMILES | IC50 [µM]
6 | 22 |  |  | CC(=O)C1C(=O)c2ccc(Oc3ccc4c(n3)C(=O)C(C(C)=O)C4=O)cc2C1=O (stereo not drawn) [Example 330, 6-acetyl-2-[(2-acetyl-1,3-dioxo-2,3-dihydro-1H-inden-5-yl)oxy]-5H,6H,7H-cyclopenta[b]pyridine-5,7-dione] | 
 |  |  |  | CC(C)(C)OC(=O)NCC(=O)C1C(=O)c2ccc(C(c3ccc4c(c3)C(=O)C(C(=O)CNC(=O)OC(C)(C)C)C4=O)(C(F)(F)F)C(F)(F)F)cc2C1=O (stereo not drawn) [Example 228, tert-butyl N-[2-(5-{2-[2-(2-{[(tert-butoxy)carbonyl]amino}acetyl)-1,3-dioxo-2,3-dihydro-1H-inden-5-yl]-1,1,1,3,3,3-hexafluoropropan-2-yl}-1,3-dioxo-2,3-dihydro-1H-inden-2-yl)-2-oxoethyl]carbamate] | 2.8
 |  |  |  | CC(C)(C)OC(=O)N1CCC[C@H]1C(=O)C1C(=O)c2ccc(C(c3ccc4c(c3)C(=O)C(C(=O)[C@@H]3CCCN3C(=O)OC(C)(C)C)C4=O)(C(F)(F)F)C(F)(F)F)cc2C1=O (stereo partly drawn) [Example 195, tert-butyl (2S)-2-[5-(2-{2-[(2S)-1-[(tert-butoxy)carbonyl]pyrrolidine-2-carbonyl]-1,3-dioxo-2,3-dihydro-1H-inden-5-yl}-1,1,1,3,3,3-hexafluoropropan-2-yl)-1,3-dioxo-2,3-dihydro-1H-indene-2-carbonyl]pyrrolidine-1-carboxylate] | 4
 |  |  |  | CC(=O)C1C(=O)c2ccc(S(=O)(=O)c3ccc4c(c3)C(=O)C(C(C)=O)C4=O)cc2C1=O (stereo not drawn) [Example 2, 5,5′-sulfonylbis(2-acetyl-1h-indene-1,3(2h)-dione)] | 18
 |  |  | 58 | CSCC(=O)C1C(=O)c2ccc(C(=O)c3ccc4c(c3)C(=O)C(C(=O)CSC)C4=O)cc2C1=O (stereo not drawn) [Example 281, 2-[2-(methylsulfanyl)acetyl]-5-{2-[2-(methylsulfanyl)acetyl]-1,3-dioxo-2,3-dihydro-1H-indene-5-carbonyl}-2,3-dihydro-1H-indene-1,3-dione] | 10
 |  | 82 | 80 | CC(C)(C)OC(=O)N1C[C@@H]2[C@H](C1)[C@H]2C(=O)C1C(=O)c2ccc(C(=O)c3ccc4c(c3)C(=O)C(C(=O)[C@H]3[C@@H]5CN(C(=O)OC(C)(C)C)C[C@@H]53)C4=O)cc2C1=O (stereo partly drawn) [Example 121] | 3.5
29 | 100 |  |  | COCCOCCNC(=O)C1C(=O)c2ccc(S(=O)(=O)c3ccc4c(c3)C(=O)C(C(=O)NCCOCCOC)C4=O)cc2C1=O (stereo not drawn) [Example 295, N-[2-(2-methoxyethoxy)ethyl]-5-[(2-{[2-(2-methoxyethoxy)ethyl]carbamoyl}-1,3-dioxo-2,3-dihydro-1H-inden-5-yl)sulfonyl]-1,3-dioxo-2,3-dihydro-1H-indene-2-carboxamide] | 1.1
1 | 4 |  |  | COCCOCCNCC(=O)C1C(=O)c2ccc(C(=O)c3ccc4c(c3)C(=O)C(C(=O)CNCCOCCOC)C4=O)cc2C1=O (stereo not drawn) [Example 393, 2-(2-{[2-(2-methoxyethoxy)ethyl]amino}acetyl)-5-[2-(2-{[2-(2-methoxyethoxy)ethyl]amino}acetyl)-1,3-dioxo-2,3-dihydro-1H-indene-5-carbonyl]-2,3-dihydro-1H-indene-1,3-dione] | 
 |  | 54 | 85 | O=C1CC(=O)c2cc(-c3ccc4c(c3)C(=O)CC4=O)ccc21 [Example 75, 1h,1′h,2h,2′h,3h,3′h-[5,5′-biindene]-1,1′,3,3′-tetrone] | 
 |  |  |  | CC(C)(C)OC(=O)N1CCCC[C@H]1C(=O)C1C(=O)c2ccc(C(=O)c3ccc4c(c3)C(=O)C(C(=O)[C@@H]3CCCCN3C(=O)OC(C)(C)C)C4=O)cc2C1=O (stereo partly drawn) [Example 127, tert-butyl (2S)-2-(5-{2-[(2S)-1-[(tert-butoxy)carbonyl]piperidine-2-carbonyl]-1,3-dioxo-2,3-dihydro-1H-indene-5-carbonyl}-1,3-dioxo-2,3-dihydro-1H-indene-2-carbonyl)piperidine-1-carboxylate] | 1
 |  |  |  | O=C(NC1CC1)C1C(=O)c2ccc(C(c3ccc4c(c3)C(=O)C(C(=O)NC3CC3)C4=O)(C(F)(F)F)C(F)(F)F)cc2C1=O (stereo not drawn) [Example 108, N-cyclopropyl-5-{2-[2-(cyclopropylcarbamoyl)-1,3-dioxo-2,3-dihydro-1H-inden-5-yl]-1,1,1,3,3,3-hexafluoropropan-2-yl}-1,3-dioxo-2,3-dihydro-1H-indene-2-carboxamide] | 5.4
 |  |  |  | O=C(c1ccc2c(c1)C(=O)C(C(=O)Nc1cccc(Cl)c1)C2=O)c1ccc2c(c1)C(=O)C(C(=O)Nc1cccc(Cl)c1)C2=O (stereo not drawn) [Example 79, N-(3-chlorophenyl)-5-{2-[(3-chlorophenyl)carbamoyl]-1,3-dioxo-2,3-dihydro-1H-indene-5-carbonyl}-1,3-dioxo-2,3-dihydro-1H-indene-2-carboxamide] | 1
 |  | 33 | 69 | O=C(Nc1ccc(I)cc1)C1C(=O)c2ccc(S(=O)(=O)c3ccc4c(c3)C(=O)C(C(=O)Nc3ccc(I)cc3)C4=O)cc2C1=O (stereo not drawn) [Example 95, N-(4-iodophenyl)-5-({2-[(4-iodophenyl)carbamoyl]-1,3-dioxo-2,3-dihydro-1H-inden-5-yl}sulfonyl)-1,3-dioxo-2,3-dihydro-1H-indene-2-carboxamide] | 
12 | 21 |  |  | CC(C)[C@@H](N)C(=O)C1C(=O)c2ccc(Oc3ccc4c(c3)C(=O)C(C(=O)[C@H](N)C(C)C)C4=O)cc2C1=O (stereo partly drawn) [Example 351, 2-[(2R)-2-amino-3-methylbutanoyl]-5-({2-[(2R)-2-amino-3-methylbutanoyl]-1,3-dioxo-2,3-dihydro-1H-inden-5-yl}oxy)-2,3-dihydro-1H-indene-1,3-dione] | 

SMILES | inhibition at 1 µM [%] | inhibition at 3 µM [%] | inhibition at 5 µM [%] | inhibition at 10 µM [%] | IC50 [µM]
O=C1c2ccc(Oc3ccc4c(c3)C(=O)C(C(=O)C3CCCCC3)C4=O)cc2C(=O)C1C(=O)C1CCCCC1 (stereo not drawn) [Example 286, 2-cyclohexanecarbonyl-5-[(2-cyclohexanecarbonyl-1,3-dioxo-2,3-dihydro-1H-inden-5-yl)oxy]-2,3-dihydro-1H-indene-1,3-dione] | 37 | 47 |  |  | 3
CC(C)(C)OC(=O)N1CC2(CC(C(=O)C3C(=O)c4ccc(C(=O)c5ccc6c(c5)C(=O)C(C(=O)C5CC7(C5)CN(C(=O)OC(C)(C)C)C7)C6=O)cc4C3=O)C2)C1 (stereo not drawn) [Example 131, tert-butyl 6-[5-(2-{2-[(tert-butoxy)carbonyl]-2-azaspiro[3.3]heptane-6-carbonyl}-1,3-dioxo-2,3-dihydro-1H-indene-5-carbonyl)-1,3-dioxo-2,3-dihydro-1H-indene-2-carbonyl]-2-azaspiro[3.3]heptane-2-carboxylate] |  |  | 83 | 88 | 4.1
CCCCC(=O)C1C(=O)c2ccc(C(=O)c3ccc4c(c3)C(=O)C(C(=O)CCCC)C4=O)cc2C1=O (stereo not drawn) [Example 153, 5-(1,3-dioxo-2-pentanoyl-2,3-dihydro-1H-indene-5-carbonyl)-2-pentanoyl-2,3-dihydro-1H-indene-1,3-dione] |  |  | 100 | 100 | 2.4
